# Laboratory results taken from patent US20220031800A1, “PEPTIDES FOR TREATING NON-EXUDATIVE MACULAR DEGENERATION AND OTHER DISORDERS OF THE EYE” (Allegro Pharmaceuticals, LLC, priority 2019, published 2022).
# Square brackets hold non-standard residues; d marks the D form. Peptide text beside a SMILES is read from it. Cya = N[C@@H](CS(=O)(=O)O)C(=O)O
# Legend:
# [1] = tested on: study eye of subjects with intermediate non-exudative AMD; experiment: Lanthony D-15 color vision test (Total Error Score Hue Style) in Dry AMD study; assay type: in vivo, human; parameters: Color vision Total Error Score Hue Style, mean / Color vision Total Error Score Hue Style, median / Color vision Total Error Score Hue Style change, median: scale not given here
# Description: Numerous study assessments were conducted at various time points throughout the study. Included among these study assessments were; refractive eye examinations, determinations of BCVA AND low-luminance BCVA, Lanthony D-15 color vision test, measurement of intraocular pressure (IOP), Indirect ophthalmoscopy/dilated fundus examinations and spectral-domain optical coherence tomography (SD-OCT). Also, blood and saliva samples were obtained from each subject for genetic analysis. The above-listed study assessments were performed at the time points indicated in Table 1, below: The results of color vision testing of the study subjects are summarized in Table 5, below.
# [2] = tested on: primary mouse retinal neuron cells; experiment: Trypan blue viability of primary mouse retinal neuron cells exposed to kainic acid; assay type: cell-based, CD1 mice; conditions: 1.0 mg/mL risuteganib alone
# Description: Purpose: Investigate neuroprotective properties of risuteganib in primary mouse retinal neuron cells exposed to kainic acid, a neuroexcitatory compound that activates glutamate receptors, resulting in overstimulation and cell death.
# Methods: Fresh retina were collected from CD1 mice and then mechanically dissociated with sterile Pasteur pipette. Cell suspensions were then dispensed into petri dish and incubated for 6 hours. Cells were then exposed to the experimental conditions: (1) untreated control, (2) 1.0 mg/mL risuteganib, (3) 500 μM kainic acid (KA), and (4) 1.0 mg/mL risuteganib for 24 hours before 500 μM kainic acid exposure. 8 hours after kainic acid treatment, dead and live cell numbers were measured using Trypan blue exclusion assay on a hemocytometer.
# primary human RPE cells = experiment: Mitochondrial membrane potential (JC-1) in primary human RPE cells exposed to hydroquinone; assay type: cell-based; conditions: 0.4 mM risuteganib co-treatment with HQ 125-180 uM
# Description: Purpose: To determine if risuteganib protects against hydroquinone (HQ)-mediated cell injury, elevated ROS level and reduced mitochondrial membrane potential (Δψm) in cultured human RPE cells. Elevated ROS levels increase oxidative stress in the cells, leading to reduced cell health and cell death. Loss of ΔΨm is a marker for early cell death. Methods: Primary human RPE cells were seeded on collagen-coated 96-well plates in triplicates at 8K, 10K and […] cells/well, respectively. Cells reached 80% to 100% confluence 24 hours after plating, and confluent cells were then grown for an additional 4 or 5 days until growth was density arrested. On day 6 after plating, cells in the plate upper half were loaded with 20 μM CM-H2DCFDA (measures ROS level) and in the plate lower half with 10 μM JC-1 (measures Δψm) for 30 minutes at 37° C. […] For the ROS and Δψm assays, a fluorescence plate reader was used to quantify ROS production (490-nm excitation, 522-nm emission), and green monomer of JC-1 (490-nm excitation, 522-nm emission) and red JC-1 aggregate (535-nm excitation, 590-nm emission), respectively. […] The WST reagent was quantified with a plate reader at 440 nm and a reference wavelength at 690 nm. Data were normalized to untreated control as 100% and were expressed as the mean±SD.
# [3] = Week 12, Group 2 (1 mg IVT day 1 + wk 16)
# [4] = Week 32, Group 1 crossover (sham day 1, 1 mg IVT wk 16)
# [5] = Week 32, Group 2 (1 mg IVT day 1 + wk 16)
compound,measurement,setting,value
"C[C@@H](O)[C@H](NC(=O)[C@H](CS(=O)(=O)O)NC(=O)CNC(=O)[C@H](CCCNC(=N)N)NC(=O)CN)C(=O)N1CCC[C@H]1C(=O)O [risuteganib, Glycyl-L-arginylglycyl-3-sulfo-L-alanyl-L-threonyl-L-proline] (H-GRG[Cya]TP-OH)","Color vision Total Error Score Hue Style, mean",[1]; [3],43.38
same,"Color vision Total Error Score Hue Style, median",[1]; [3],39.67
same,"Color vision Total Error Score Hue Style change, median","[1]; Week 12 change from screening, Group 2 (1 mg IVT day 1 + wk 16)",2.67
same,"Color vision Total Error Score Hue Style change, mean","[1]; Week 12 change from screening, Group 2 (1 mg IVT day 1 + wk 16), increase = worsening",2.41
same,"Color vision Total Error Score Hue Style, mean",[1]; [4],48.76
same,"Color vision Total Error Score Hue Style, median",[1]; [4],42.00
same,"Color vision Total Error Score Hue Style, mean",[1]; [5],39.88
same,"Color vision Total Error Score Hue Style, median",[1]; [5],24.09
same,"Color vision Total Error Score Hue Style change, median","[1]; Week 32 change from screening, Group 2 (1 mg IVT day 1 + wk 16)",−3.17
same,"Color vision Total Error Score Hue Style change, median","[1]; Week 32 change, Group 1 crossover (sham day 1, 1 mg IVT wk 16)",1.34
same,Decrease (improvement) in color vision total error score,[1]; risuteganib responders at Week 32 (FIG. 3),13.03
same,"Change in cell viability, treatment alone",[2],did not induce detectable change in cell viability
same,Improvement of HQ-reduced Δψm,primary human RPE cells,16%
